The test system of data set [1] is VEGF production in U251 human glioma cell. Briefly: VEGF production suppressing action under low oxygen, ELISA. Particulars: for VEGF production suppressing action: IC50: U251, low oxygen (2% O2) incubator 18 hours; for VEGF production suppression, in words: U251, low oxygen stimulation. It is filed as cell-based. The procedure: U251 human glioma cell cultured in DULBECCO-modified eagle medium (DMEM; manufactured by SIGMA Co., Ltd.) containing 10% fetal calf serum, penicillin (100 unit/ml) and streptomycin (100 μg/ml) was dispensed in 96-well plates by 4×10^4 cells/well. After culturing at 37° C. overnight in a CO2 incubator (5% CO2), the media were removed, and 180 μl of the above-mentioned incubation solution was charged. After adding 20 μL of the above-mentioned incubation solution containing the test compound diluted with 3-fold succession, they were incubated in a low oxygen (2% O2) incubator for 18 hours. The supernatants thereof were measured by an ELISA kit (Immunobiology Research Institute).
Concentration at which the amount of VEGF expressed by low oxygen stimulation was suppressed to 50% (IC50 value) was determined and results are shown in Table 9. […] The activities of 11107F and 11107G were very weak.

Data set [2] can be described thus: Solubility (physico-chemical properties of the 11107 analogues). The note with it: in dimethylsulfoxide, pyridine, methanol, acetone and water.
Data set [3] relates to transcription from VEGF promoter. The experiment in a line: VEGF transcription-suppressing activity, VEGF-PLAP reporter in U251/1-8 cell. It is filed as cell-based. Particulars: Homo sapiens, U-251, U251/1-8 cell, PLAP activity, low oxygen 18 hours; for pIC50: read-out: IC50 values of VEGF transcription-suppressing activity (range given); for IC50: read-out: VEGF transcription suppressing activity (IC50: nM). An outline of the steps: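 U251 glioma clone stably carrying a ~2.3 kb human VEGF promoter–secreted PLAP reporter, 4×10^4 cells/well, exposed to 3-fold dilutions of compound for 18 h under low oxygen. Supernatant PLAP read by chemiluminescence at pH 10.0; IC50 = 50% suppression, normoxia 0%, hypoxia 100%.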

pIC50: −log10 of the molar value. Read-outs that look alike come from different tables or passages of the source.

Take `CCC(O)C(C)(O)C1OC1CC(C)/C=C/C=C(\C)C1OC(=O)CC(O)CCC(C)(O)C(OC(C)=O)/C=C/C1C` (centres unmarked) [11107 E]: the “VEGF production suppressing action: IC50” value in data set [1] is 0.0363 µg/mL.

`CC(=O)OC1/C=C/C(C)C(/C(C)=C/C=C/C(C)CC2OC2C(C)C(O)C(C)O)OC(=O)CC(O)CC(O)C1(C)O` (centres unmarked) [11107AZ]: the Solubility result in data set [2] is “soluble in dimethylsulfoxide, pyridine, methanol and acetone, and slightly soluble in water”. Further, the pIC50 in data set [3] is 7.00 to 9.00.

Turning to `CCC(O)C(C)C1OC1CC(C)/C=C/C=C(\C)C1OC(=O)CC(O)CC(OC(C)=O)C(C)(O)C(OC(C)=O)/C=C/C1C` (centres unmarked) [11107L], the Solubility entry in data set [2] was “soluble in dimethylsulfoxide, pyridine, methanol and acetone, and slightly soluble in water”. In addition, the pIC50 in data set [3] is 7.00 to 9.00.

With `CCC(=O)C(C)C1OC1CC(C)/C=C/C=C(\C)C1OC(=O)CC(O)/C=C/C(C)(O)C(OC(C)=O)/C=C/C1C` (centres unmarked) [11107AL], the Solubility result in data set [2] is “soluble in dimethylsulfoxide, pyridine, methanol and acetone, and slightly soluble in water”. The pIC50 in data set [3] was 7.00 to 9.00.

With `CC(=O)OC1/C=C/C(C)C(/C(C)=C/C=C/C(C)CC2OC2C(C)C(C)O)OC(=O)CC(O)CCC1(C)O` (centres unmarked) [11107J], the Solubility entry in data set [2] is “soluble in dimethylsulfoxide, pyridine, methanol and acetone, and slightly soluble in water”. Besides, in data set [3], the pIC50 was 7.00 to 9.00 and the IC50 was 5.9 nM.

For `CCC(O)CC1OC1CC(C)/C=C/C=C(\C)C1OC(=O)CC(O)CCC(C)(O)C(OC(C)=O)/C=C/C1C` (centres unmarked) [11107T], the Solubility result in data set [2] was “soluble in dimethylsulfoxide, pyridine, methanol and acetone, and slightly soluble in water”. The pIC50 in data set [3] was 7.00 to 9.00.

Take `CCC(O)C(C)C1OC1CC(C)/C=C/C=C(\C)C1OC(=O)CC(O)CC(O)C(C)(O)C(OC(C)=O)/C=C/C1C` (centres unmarked) [11107K]: the Solubility entry in data set [2] was “soluble in dimethylsulfoxide, pyridine, methanol and acetone, and slightly soluble in water”. Also, in data set [3], the pIC50 was 7.00 to 9.00 and the IC50 turned out to be 2.7 nM.

For the compound `CCC(O)C(C)C1OC1CC(C)/C=C/C=C(\C)C1OC(=O)CC(O)/C=C/C(C)(OC(C)=O)C(OC(C)=O)/C=C/C1C` (centres unmarked) [11107AP], the Solubility result in data set [2] is “soluble in dimethylsulfoxide, pyridine, methanol and acetone, and slightly soluble in water”. The pIC50 in data set [3] is 7.00 to 9.00.

Turning to `CCC(O)C(C)C1OC1CC(C)/C=C/C=C(\C)C1OC(=O)CC(O)CCC2(CO2)C(OC(C)=O)/C=C/C1C` (centres unmarked) [11107AM], the Solubility result in data set [2] is “soluble in dimethylsulfoxide, pyridine, methanol and acetone, and slightly soluble in water”. Further, in data set [3], the pIC50 was 7.00 to 9.00 and the IC50 was found to be 2.6 nM.

As for `CCC(O)C(C)C1OC1CC(C)/C=C/C=C(\C)C1OC(=O)CC(O)CC(=O)C(C)(O)C(OC(C)=O)/C=C/C1C` (centres unmarked) [11107BH], in data set [2], the Solubility result is “soluble in dimethylsulfoxide, pyridine, methanol and acetone, and slightly soluble in water”. In addition, in data set [3], the pIC50 was 7.00 to 9.00 and the IC50 was 2.6 nM.

`CCC(O)C(C)C1OC1CC(C)/C=C/C=C(\C)C1OC(=O)CC(O)CCC(C)(O)C(O)/C=C/C1C` (centres unmarked) [11107 A]: in data set [1], the “VEGF production suppressing action: IC50” value turned out to be 0.111 µg/mL.

As to `CCC(O)C(C)C1OC1CC(C)/C=C/C=C(\C)C1OC(=O)CC(O)CCC(O)(COC(C)=O)C(O)/C=C/C1C` (centres unmarked) [11107AB], the Solubility entry in data set [2] was “soluble in dimethylsulfoxide, pyridine, methanol and acetone, and slightly soluble in water”. In addition, the pIC50 in data set [3] is 7.00 to 9.00.

As to `CCC(=O)C(C)C1OC1CC(C)/C=C/C=C(\C)C1OC(=O)CC(O)CCC(C)(O)C(OC(C)=O)/C=C/C1C` (centres unmarked) [11107 C], the “VEGF production suppressing action: IC50” value in data set [1] is 0.003 µg/mL.

For `CCC(O)C(C)(O)C1OC1CC(C)/C=C/C=C(\C)C1OC(=O)CC(O)CCC(C)(O)C(O)/C=C/C1C` (centres unmarked) [11107G], the Solubility entry in data set [2] was “soluble in dimethylsulfoxide, pyridine, methanol and acetone, and slightly soluble in water”. Besides, the “VEGF production suppression, in words” value in data set [1] is on record as “very weak”.

For the compound `CCC(O)C(C)C1OC1CC(C)(O)/C=C/C=C(\C)C1OC(=O)CC(O)CCC(C)(O)C(OC(C)=O)/C=C/C1C` (centres unmarked) [11107D], the Solubility result in data set [2] is “soluble in dimethylsulfoxide, pyridine, methanol and acetone, and slightly soluble in water”. Also, in data set [1], the “VEGF production suppression, in words” value was “strong successive to 11107B”. Further, in data set [3], the pIC50 is 7.00 to 9.00 and the IC50 was 6.6 nM.

With `CCC1OC1C(O)C(C)/C=C/C=C(\C)C1OC(=O)CC(O)CCC(C)(O)C(OC(C)=O)/C=C/C1C` (centres unmarked) [11107AY], in data set [2], the Solubility result is “soluble in dimethylsulfoxide, pyridine, methanol and acetone, and slightly soluble in water”. Besides, in data set [3], the pIC50 was 7.00 to 9.00.

For the compound `CCC(O)C(C)C1OC1CC(C)(O)/C=C/C=C(\C)C1OC(=O)CC(O)CCC(C)(O)C(OC(C)=O)/C=C/C1C` (centres unmarked) [11107 D], the “VEGF production suppressing action: IC50” value in data set [1] was 0.0032 µg/mL.

For `CC(=O)OC1/C=C/C(C)C(/C(C)=C/C=C/C(C)C/C=C/C(C)C(O)C(C)O)OC(=O)CC(O)CCC1(C)O` (centres unmarked) [11107AJ], in data set [2], the Solubility result is “soluble in dimethylsulfoxide, pyridine, methanol and acetone, and slightly soluble in water”. For the same compound, the pIC50 in data set [3] was 7.00 to 9.00.

With `CCC(O)C(C)C1OC1CC(C)/C=C/C=C(\C)C1OC(=O)CC(O)CCC(C)(OC(C)=O)C(OC(C)=O)/C=C/C1C` (centres unmarked) [11107AQ], in data set [2], the Solubility result is “soluble in dimethylsulfoxide, pyridine, methanol and acetone, and slightly soluble in water”. Besides, the pIC50 in data set [3] was 7.00 to 9.00.

For `CCC(O)C(C)C1OC1CC/C=C/C=C(\C)C1OC(=O)CC(O)CCC(C)(O)C(OC(C)=O)/C=C/C1C` (centres unmarked) [11107U], in data set [2], the Solubility entry is “soluble in dimethylsulfoxide, pyridine, methanol and acetone, and slightly soluble in water”. Further, in data set [3], the pIC50 was 7.00 to 9.00.

Turning to `CCC(O)C(C)C1OC1CC(C)(O)/C=C/C=C(\C)C1OC(=O)CC(O)CCC(C)(O)C(O)/C=C/C1C` (centres unmarked) [11107F], the “VEGF production suppression, in words” value in data set [1] was “very weak”.

`CC(=O)OC1/C=C/C(C)C(/C(C)=C/C=C/C(C)CC2OC2C(C)O)OC(=O)CC(O)CCC1(C)O` (centres unmarked) [11107R]: the Solubility result in data set [2] was “soluble in dimethylsulfoxide, pyridine, methanol and acetone, and slightly soluble in water”. Further, the pIC50 in data set [3] was 7.00 to 9.00.

Regarding `CCC(=O)C(C)C1OC1CC(C)/C=C/C=C(\C)C1OC(=O)CC(O)CCC(C)(O)C(OC(C)=O)/C=C/C1C` (centres unmarked) [11107C, (8E,12E,14E)-7-Acetoxy-3,6-dihydroxy-6,10,12,16,20-pentamethyl-21-oxo-18,19-epoxytricosa-8,12,14-trien-11-olide], in data set [1], the “VEGF production suppression, in words” value is given as “strong successive to 11107B”. In data set [3], the pIC50 was 7.00 to 9.00 and the IC50 was determined as 8.2 nM.

Regarding `CCC(O)C(C)C1OC1CC(C)/C=C/C=C(\C)C1OC(=O)CC(O)/C=C/C2(CO2)C(OC(C)=O)/C=C/C1C` (centres unmarked) [11107AN], the Solubility result in data set [2] is “soluble in dimethylsulfoxide, pyridine, methanol and acetone, and slightly soluble in water”. The pIC50 in data set [3] was 7.00 to 9.00.

Turning to `CCC(O)C(C)C1OC1CC(C)/C=C/C=C/C1OC(=O)CC(O)CCC(C)(O)C(OC(C)=O)/C=C/C1C` (centres unmarked) [11107W], the Solubility entry in data set [2] was “soluble in dimethylsulfoxide, pyridine, methanol and acetone, and slightly soluble in water”. Besides, in data set [3], the pIC50 is 7.00 to 9.00.

With `CCC(=O)OC1/C=C/C(C)C(/C(C)=C/C=C/C(C)CC2OC2C(C)C(O)CC)OC(=O)CC(O)CCC1(C)O` (centres unmarked) [11107I], in data set [2], the Solubility result is “soluble in dimethylsulfoxide, pyridine, methanol and acetone, and slightly soluble in water”. In addition, the pIC50 in data set [3] is 7.00 to 9.00.

For `CCC(O)C(C)C1OC1CC(C)/C=C/C=C(\C)C1OC(=O)CC(O)CCC(O)(COC(C)=O)C(OC(C)=O)/C=C/C1C` (centres unmarked) [11107N], the Solubility entry in data set [2] was “soluble in dimethylsulfoxide, pyridine, methanol and acetone, and slightly soluble in water”. Also, in data set [3], the pIC50 was 7.00 to 9.00.

On to `CCC(O)C(C)(O)C1OC1CC(C)/C=C/C=C(\C)C1OC(=O)CC(O)CCC(C)(O)C(OC(C)=O)/C=C/C1C` (centres unmarked) [11107E], for which the Solubility result in data set [2] was “soluble in dimethylsulfoxide, pyridine, methanol and acetone, and slightly soluble in water”. The pIC50 in data set [3] is 7.00 to 9.00.

On to `CCC(O)C(C)/C=C/CC(C)/C=C/C=C(\C)C1OC(=O)CC(O)CCC(C)(O)C(OC(C)=O)/C=C/C1C` (centres unmarked) [11107BI], for which, in data set [2], the Solubility result was “soluble in dimethylsulfoxide, pyridine, methanol and acetone, and slightly soluble in water”. The pIC50 in data set [3] is 7.00 to 9.00.

Consider `CCC(O)C(C)C1OC1CC(C)/C=C/C=C(\C)C1OC(=O)CC(O)CC(O)C(C)C(OC(C)=O)/C=C/C1C` (centres unmarked) [11107Y], for which the Solubility entry in data set [2] was “soluble in dimethylsulfoxide, pyridine, methanol and acetone, and slightly soluble in water”. Further, the pIC50 in data set [3] is 7.00 to 9.00.

The values above are taken from US7667052B2 (Eisai R&D Management Co., Ltd., priority 2003, dated 2010).
